Source: ChEMBL document CHEMBL5030537 (J Med Chem, 2021)
Converted amounts (≈) assume the structure as drawn. Each block holds one molecule with its values, some of them ahead of it.

Experiments:
[1] = target: T1, Tyrosine-protein kinase BTK (Homo sapiens, UniProt Q06187); test: Inhibition of Btk (unknown origin) assessed as inhibition of phosphorylation of FAM-labelled peptide substrate
[2] = target: T1, Tyrosine-protein kinase BTK; test: Inhibition of human Btk in human Raji cells assessed as PhosY223 measured after 30 mins by cellular HTRF assay; assay type: cell-based
[3] = Toxicity in human peripheral blood lymphocytes in absence of S9 fraction by micronucleus test; assay type: cell-based; details: lymphocyte
[4] = Stability in PBS buffer measured after 2 hrs; assay type: physicochemical
[5] = In vivo inhibition of pBTK in collagen-induced arthritis rat model at 3-30 mg/kg after 12 hrs; assay type: functional
MDR1 [6] = test: Apparent permeability from apical to basolateral side in LLC-PK1-MDR1 cells; assay type: ADME, cell-based, Sus scrofa; details: pig
[7] = Half life in Beagle dog; assay type: ADME, Canis lupus familiaris; details: in vivo
[8] = Oral bioavailability in Beagle dog; assay type: ADME, organism-based, Canis lupus familiaris; details: in vivo
[9] = target: Proto-oncogene tyrosine-protein kinase Src (Homo sapiens, UniProt P12931); test: Inhibition of Src (unknown origin)
Salmonella typhimurium [10] = test: Genotoxicity in Salmonella typhimurium TA1535 by Ames test; assay type: toxicity, organism-based; details: salmonella enterica subsp. enterica serovar typhimurium
[11] = Oral bioavailability in Sprague-Dawley rat; assay type: ADME, organism-based; details: in vivo
Salmonella typhimurium [12] = test: Genotoxicity in Salmonella typhimurium TA98 by Ames test; assay type: toxicity, organism-based; details: salmonella enterica subsp. enterica serovar typhimurium
[13] = Metabolic stability in mouse liver hepatocytes assessed as extraction ratio
[14] = Toxicity in rat assessed as adverse effect; details: in vivo
[15] = AUC in collagen-induced arthritis rat model at 3 mg/kg, po […] after 22 days; assay type: ADME, organism-based; set-up: dose 3 mg/kg, time 22 day; details: in vivo, 528 h
[16] = Thermodynamic solubility of the compound at pH 6.8 in JP2 fluid; assay type: physicochemical; details: read-out: Therm_solubility
[17] = Thermodynamic solubility of the compound at pH 1.2 in JP1 fluid; assay type: physicochemical; details: read-out: Therm_solubility
PDE10A2 = PDE10A2 (Homo sapiens, UniProt Q9Y233); test: Inhibition of PDE10A2 (unknown origin) assessed as remaining activity
[18] = target: Tyrosine-protein kinase Lck (Homo sapiens, UniProt P06239); test: Inhibition of Lck (unknown origin)
Rattus norvegicus [19] = test: Antiarthritic activity against collagen-induced arthritis Lewis rat model assessed as change in paw volume at 1 mg/kg, po once daily for 22 days; assay type: functional; details: time 22 day
Rattus norvegicus [20] = test: Antiarthritic activity against collagen-induced arthritis Lewis rat model assessed as change in paw volume at 3 mg/kg, po once daily for 22 days; assay type: functional; details: time 22 day
PDE3 = test: Inhibition of PDE3 (unknown origin) assessed as remaining activity; details: human
[21] = In vivo stability in Sprague-Dawley rat liver assessed as extraction ratio at 70 ml/kg
Salmonella typhimurium [22] = test: Genotoxicity in Salmonella typhimurium TA1537 by Ames test; assay type: toxicity, organism-based; details: salmonella enterica subsp. enterica serovar typhimurium
[23] = Toxicity in dog assessed as adverse effect; set-up: species or system Canis lupus familiaris; details: in vivo
[24] = Clearance in Beagle dog at 1 mg/kg, iv; assay type: ADME, organism-based, Canis lupus familiaris; details: in vivo
hERG (KCNH2) = hERG (KCNH2) (Homo sapiens, UniProt Q12809); test: Inhibition of hERG at 13 uM
[25] = GSH reactivity in pH 7.4 PBS buffer assessed as intrinsic reactivity by measuring percent remaining measured after 2 hrs; assay type: physicochemical; details: read-out: Stability
MDR1 [26] = test: Efflux ratio of apparent permeability in LLC-PK1-MDR1 cells; details: pig
[27] = Plasma protein binding in Sprague-Dawley rat measured by rapid equilibrium dialysis method; assay type: ADME, cell-free; details: read-out: PPB (converted)
[28] = Half life in Sprague-Dawley rat; assay type: ADME; details: in vivo
[29] = In vivo stability in Beagle dog liver assessed as extraction ratio at 35 ml/kg
Salmonella typhimurium [30] = test: Genotoxicity in Salmonella typhimurium WP2 uvrA in presence of S9 fraction by Ames test; assay type: toxicity, organism-based; details: salmonella enterica subsp. enterica serovar typhimurium
[31] = Metabolic stability in Beagle dog liver hepatocytes assessed as extraction ratio
[32] = Metabolic stability in human liver hepatocytes assessed as extraction ratio; details: mouse
[33] = Toxicity in human peripheral blood lymphocytes in presence of S9 fraction by micronucleus test; assay type: subcellular, Lymphocyte
Rattus norvegicus [34] = test: Antiarthritic activity against collagen-induced arthritis po dosed Lewis rat model assessed as inhibition of paw swelling measured after 22 days; assay type: organism-based; details: 528 h, time 22 day
Rattus norvegicus [35] = test: Antiarthritic activity against collagen-induced arthritis Lewis rat model assessed as inhibition of paw swelling treated po once daily for 21 days; assay type: functional, organism-based; details: dose 0.3-3 mg/kg, time 21.0 day
[36] = Thermodynamic solubility of the compound at pH 6.8 in GCDC; assay type: physicochemical; details: read-out: Therm_solubility
[37] = Metabolic stability in Sprague-Dawley rat liver hepatocytes assessed as extraction ratio
Salmonella typhimurium [38] = test: Genotoxicity in Salmonella typhimurium WP2 uvrA in absence of S9 fraction by Ames test; assay type: toxicity, organism-based; details: salmonella enterica subsp. enterica serovar typhimurium
Salmonella typhimurium [39] = test: Genotoxicity in Salmonella typhimurium […] by Ames test; assay type: toxicity, organism-based; details: salmonella enterica subsp. enterica serovar typhimurium
Rattus norvegicus [40] = test: Antiarthritic activity against collagen-induced arthritis Lewis rat model assessed as change in paw volume at 0.3 mg/kg, po once daily for 22 days; assay type: functional; details: time 22 day
[41] = Plasma protein binding in human measured by rapid equilibrium dialysis method; assay type: ADME, cell-free; details: read-out: PPB (converted)
Rattus norvegicus [42] = test: Antiarthritic activity against collagen-induced arthritis Lewis rat model assessed as change in paw volume at 0.1 mg/kg, po once daily for 22 days; assay type: functional; details: time 22 day
[43] = Metabolic stability in monkey liver hepatocytes assessed as extraction ratio; details: rhesus monkey
PDE5 = PDE5 (Homo sapiens, UniProt O76074); test: Inhibition of PDE5 (unknown origin) assessed as remaining activity

T1 sequence (Q06187 whole entry): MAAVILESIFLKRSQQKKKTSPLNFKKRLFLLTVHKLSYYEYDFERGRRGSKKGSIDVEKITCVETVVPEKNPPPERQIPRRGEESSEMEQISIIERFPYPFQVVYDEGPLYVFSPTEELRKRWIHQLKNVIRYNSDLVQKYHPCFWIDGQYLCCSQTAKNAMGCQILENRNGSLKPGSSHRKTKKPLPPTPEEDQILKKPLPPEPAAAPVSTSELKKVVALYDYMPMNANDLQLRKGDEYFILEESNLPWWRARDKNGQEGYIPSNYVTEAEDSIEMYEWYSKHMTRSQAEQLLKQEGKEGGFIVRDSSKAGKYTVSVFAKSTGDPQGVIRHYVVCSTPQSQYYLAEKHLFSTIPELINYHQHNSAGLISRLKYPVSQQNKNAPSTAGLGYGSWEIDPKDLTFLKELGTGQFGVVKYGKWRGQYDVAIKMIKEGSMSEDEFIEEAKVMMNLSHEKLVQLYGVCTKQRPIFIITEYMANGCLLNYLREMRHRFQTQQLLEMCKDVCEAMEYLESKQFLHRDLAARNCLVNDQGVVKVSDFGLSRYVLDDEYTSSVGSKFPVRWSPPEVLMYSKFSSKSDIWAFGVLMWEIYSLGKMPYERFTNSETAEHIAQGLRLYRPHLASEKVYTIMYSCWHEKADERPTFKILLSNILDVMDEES
Proto-oncogene tyrosine-protein kinase Src, sequence (P12931 2-536 limits assumed): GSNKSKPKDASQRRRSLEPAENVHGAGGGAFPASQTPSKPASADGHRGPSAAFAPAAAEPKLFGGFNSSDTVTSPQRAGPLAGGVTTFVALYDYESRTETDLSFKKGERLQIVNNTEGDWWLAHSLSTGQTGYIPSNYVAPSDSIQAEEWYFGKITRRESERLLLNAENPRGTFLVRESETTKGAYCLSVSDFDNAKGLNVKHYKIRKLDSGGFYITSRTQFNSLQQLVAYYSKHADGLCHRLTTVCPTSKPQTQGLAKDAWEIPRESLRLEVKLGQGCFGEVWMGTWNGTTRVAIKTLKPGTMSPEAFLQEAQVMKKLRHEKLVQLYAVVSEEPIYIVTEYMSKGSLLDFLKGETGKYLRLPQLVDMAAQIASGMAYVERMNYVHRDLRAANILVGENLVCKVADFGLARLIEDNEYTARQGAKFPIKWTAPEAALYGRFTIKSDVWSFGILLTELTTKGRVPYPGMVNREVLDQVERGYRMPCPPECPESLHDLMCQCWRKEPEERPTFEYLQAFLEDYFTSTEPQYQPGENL
PDE10A2, sequence (Q9Y233 whole entry): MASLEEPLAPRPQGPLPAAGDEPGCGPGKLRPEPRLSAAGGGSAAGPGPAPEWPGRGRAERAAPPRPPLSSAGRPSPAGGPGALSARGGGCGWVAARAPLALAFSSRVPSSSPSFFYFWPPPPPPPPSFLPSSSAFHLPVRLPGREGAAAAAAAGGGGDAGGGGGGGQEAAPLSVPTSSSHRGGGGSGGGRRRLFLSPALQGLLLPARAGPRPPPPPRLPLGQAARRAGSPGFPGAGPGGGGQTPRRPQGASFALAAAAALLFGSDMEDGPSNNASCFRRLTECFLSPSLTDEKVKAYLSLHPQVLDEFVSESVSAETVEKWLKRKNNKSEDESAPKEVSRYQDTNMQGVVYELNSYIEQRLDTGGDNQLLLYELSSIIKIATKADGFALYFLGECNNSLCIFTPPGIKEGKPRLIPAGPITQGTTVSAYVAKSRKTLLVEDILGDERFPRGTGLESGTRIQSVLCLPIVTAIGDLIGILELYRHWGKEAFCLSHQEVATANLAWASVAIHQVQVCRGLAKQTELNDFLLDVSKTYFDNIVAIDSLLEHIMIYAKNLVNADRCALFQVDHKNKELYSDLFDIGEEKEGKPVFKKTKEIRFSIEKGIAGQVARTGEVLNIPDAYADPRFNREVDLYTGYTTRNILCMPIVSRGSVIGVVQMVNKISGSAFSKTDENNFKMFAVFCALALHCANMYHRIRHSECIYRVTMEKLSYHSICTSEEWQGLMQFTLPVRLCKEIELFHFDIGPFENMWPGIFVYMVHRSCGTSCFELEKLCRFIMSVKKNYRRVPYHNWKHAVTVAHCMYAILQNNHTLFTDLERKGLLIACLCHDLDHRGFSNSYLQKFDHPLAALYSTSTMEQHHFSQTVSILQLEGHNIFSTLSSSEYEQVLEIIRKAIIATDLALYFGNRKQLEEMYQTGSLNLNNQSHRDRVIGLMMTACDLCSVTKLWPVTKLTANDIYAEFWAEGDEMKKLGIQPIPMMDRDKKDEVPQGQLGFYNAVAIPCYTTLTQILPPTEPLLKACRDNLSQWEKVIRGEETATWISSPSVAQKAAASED
hERG (KCNH2), sequence (Q12809 whole entry): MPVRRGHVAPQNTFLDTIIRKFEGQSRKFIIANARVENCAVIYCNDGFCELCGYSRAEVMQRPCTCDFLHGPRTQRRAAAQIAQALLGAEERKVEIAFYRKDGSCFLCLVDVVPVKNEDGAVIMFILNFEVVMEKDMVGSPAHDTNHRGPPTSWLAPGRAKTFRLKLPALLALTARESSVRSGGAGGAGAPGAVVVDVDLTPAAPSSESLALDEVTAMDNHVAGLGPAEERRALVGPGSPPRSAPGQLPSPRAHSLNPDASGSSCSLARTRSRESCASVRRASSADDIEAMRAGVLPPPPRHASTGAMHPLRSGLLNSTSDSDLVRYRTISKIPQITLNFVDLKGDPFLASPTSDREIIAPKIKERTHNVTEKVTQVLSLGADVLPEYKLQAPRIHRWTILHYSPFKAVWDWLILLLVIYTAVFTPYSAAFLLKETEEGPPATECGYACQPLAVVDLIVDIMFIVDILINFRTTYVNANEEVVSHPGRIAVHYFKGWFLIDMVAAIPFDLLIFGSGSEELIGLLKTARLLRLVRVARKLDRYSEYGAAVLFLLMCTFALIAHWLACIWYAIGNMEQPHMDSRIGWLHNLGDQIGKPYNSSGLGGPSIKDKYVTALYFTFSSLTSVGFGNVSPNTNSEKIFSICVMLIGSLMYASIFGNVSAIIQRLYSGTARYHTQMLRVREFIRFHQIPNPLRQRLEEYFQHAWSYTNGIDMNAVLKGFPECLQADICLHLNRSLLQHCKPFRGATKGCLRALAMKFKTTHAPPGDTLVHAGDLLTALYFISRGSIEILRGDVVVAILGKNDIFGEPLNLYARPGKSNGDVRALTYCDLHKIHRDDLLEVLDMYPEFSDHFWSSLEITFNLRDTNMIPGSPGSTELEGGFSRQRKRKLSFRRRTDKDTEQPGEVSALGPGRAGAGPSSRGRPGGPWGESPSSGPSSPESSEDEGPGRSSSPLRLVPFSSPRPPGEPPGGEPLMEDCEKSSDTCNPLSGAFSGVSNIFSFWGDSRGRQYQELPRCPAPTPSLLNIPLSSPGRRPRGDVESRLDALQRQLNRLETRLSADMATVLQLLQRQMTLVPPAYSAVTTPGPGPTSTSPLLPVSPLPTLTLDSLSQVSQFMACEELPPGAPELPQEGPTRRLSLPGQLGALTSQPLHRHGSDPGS
Tyrosine-protein kinase Lck, sequence (P06239 whole entry): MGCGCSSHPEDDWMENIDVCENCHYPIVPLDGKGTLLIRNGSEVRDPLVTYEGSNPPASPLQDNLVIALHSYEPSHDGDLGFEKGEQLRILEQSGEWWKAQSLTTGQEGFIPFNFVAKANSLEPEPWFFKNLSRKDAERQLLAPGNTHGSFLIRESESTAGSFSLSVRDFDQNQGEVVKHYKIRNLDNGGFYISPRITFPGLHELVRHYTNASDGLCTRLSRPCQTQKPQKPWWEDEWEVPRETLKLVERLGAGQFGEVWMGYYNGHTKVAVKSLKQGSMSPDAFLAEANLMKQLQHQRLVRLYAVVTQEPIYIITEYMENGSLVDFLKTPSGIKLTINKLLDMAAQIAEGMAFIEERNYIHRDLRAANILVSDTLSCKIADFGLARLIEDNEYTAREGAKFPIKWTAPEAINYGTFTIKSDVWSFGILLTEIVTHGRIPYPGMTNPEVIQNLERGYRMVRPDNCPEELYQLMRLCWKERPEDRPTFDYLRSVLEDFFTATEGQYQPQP

IC50 [1]: 3160 nM
SMILES: NC(=O)c1nnc2ccccc2c1N

IC50 [1]: 20 nM
EC50 [2]: 158 nM
SMILES: CC(C)Nc1nc(-c2n[nH]c(=O)[nH]2)cc2ccccc12

IC50 [1]: 10 nM
EC50 [2]: 100 nM
SMILES: CC(C)Oc1nc(-c2n[nH]c(=O)[nH]2)cc2ccccc12

IC50 [1]: 50.1 nM
SMILES: CCOc1nc(-c2n[nH]c(=O)[nH]2)cc2ccccc12

IC50 [1]: 3160 nM
SMILES: COc1nc2ccccc2cc1-c1n[nH]c(=O)[nH]1

IC50 [1]: 251 nM
SMILES: Cc1cc(OC(C)C)nc(-c2n[nH]c(=O)[nH]2)c1

IC50 [1]: 316000 nM
SMILES: O=c1[nH]nc(-c2ccccn2)[nH]1

IC50 [1]: 100 nM
EC50 [2]: 794 nM
SMILES: CCNc1nc(-c2n[nH]c(=O)[nH]2)cc2ccccc12

IC50 [1]: 10000 nM
SMILES: O=c1[nH]nc(-c2nc3ccccc3[nH]2)[nH]1

IC50 [1]: > 100000 nM
SMILES: CCOc1ncccc1-c1n[nH]c(=O)[nH]1

IC50 [1]: 6310 nM
SMILES: CCOc1cccc(-c2n[nH]c(=O)[nH]2)n1

IC50 [1]: 100000 nM
SMILES: COc1ncccc1-c1n[nH]c(=O)[nH]1

IC50 [1]: 25.1 nM
EC50 [2]: 398 nM
SMILES: CCCOc1nc(-c2n[nH]c(=O)[nH]2)cc2ccccc12

IC50 [1]: 31.6 nM
SMILES: CC(=O)N1CC[C@H](Oc2nc(-c3n[nH]c(=O)[nH]3)cc3ccccc23)C1

IC50 [1]: 126000 nM
SMILES: O=c1[nH]nc(-c2cccnc2)[nH]1

IC50 [1]: 1580 nM
SMILES: CC(C)COc1cccc(-c2n[nH]c(=O)[nH]2)n1

IC50 [1]: 5010 nM
SMILES: O=c1[nH]nc(-c2cc3ccccc3cn2)[nH]1

IC50 [1]: 31.6 nM
EC50 [2]: 501 nM
SMILES: C=CC(=O)N1CC[C@@H](Oc2nc(-c3n[nH]c(=O)[nH]3)cc3ccccc23)C1

IC50 [1]: 31600 nM
SMILES: COc1cccc(-c2n[nH]c(=O)[nH]2)n1

IC50 [1]: 398 nM
SMILES: COc1nc(-c2n[nH]c(=O)[nH]2)cc2ccccc12

IC50 [1]: 501000 nM
SMILES: Oc1n[nH]c(-c2ccccc2)n1

Stability [4]: Stable
Papp A→B (MDR1 [6]): 1.89 ×10⁻⁶ cm/s
half-life [7]: 3 h
bioavailability [8]: 6.5%
IC50 [9]: 631 nM
F [11]: 6%
hepatic extraction ratio [13]: 0.62
AUC [15]: 4.2 ng·h/mL
solubility thermodynamic [16]: < 1.1 µg/mL
solubility thermodynamic [17]: < 0.1 µg/mL
Activity (PDE10A2): 59%
IC50 [18]: 1000 nM
Activity (PDE3): 96%
hepatic extraction ratio [21]: > 0.9
IC50 [1]: < 2 nM
clearance [24]: 28.5 mL/min/kg
remaining at 2 h [25]: 75%
efflux ratio (MDR1 [26]): 10.8
fraction unbound [27]: 0.098
half-life [28]: 0.7 h
EC50 [2]: 1.26 nM
hepatic extraction ratio [29]: 0.81
hepatic extraction ratio [31]: 0.48
hepatic extraction ratio [32]: 0.21
solubility thermodynamic [36]: 6.8 µg/mL (≈ 19.4 µM)
hepatic extraction ratio [37]: 0.31
fraction unbound [41]: 0.113
hepatic extraction ratio [43]: 0.37
Activity (PDE5): 67%
SMILES: C=CC(=O)N1CC[C@H](Oc2nc(-c3n[nH]c(=O)[nH]3)cc3ccccc23)C1 [TAK-020]
Activity [3]: Non-Toxic
inhibition in vivo at 30 mg/kg [5]: > 50%
Activity (Salmonella typhimurium [10]): Non-Toxic
Activity (Salmonella typhimurium [12]): Non-Toxic
Activity [14]: Non-Toxic
Activity (Rattus norvegicus [19]): 173%
Activity (Rattus norvegicus [20]): 240%
Activity (Salmonella typhimurium [22]): Non-Toxic
Activity [23]: Non-Toxic
inhibition at 13 µM (hERG (KCNH2)): 18%
Activity (Salmonella typhimurium [30]): Non-Toxic
Activity [33]: Non-Toxic
ED50 (Rattus norvegicus [34]): 0.17 mg/kg
inhibition (Rattus norvegicus [35]): Dose-Dependent Effect
Activity (Salmonella typhimurium [38]): Non-Toxic
Activity (Salmonella typhimurium [39]): Non-Toxic
Activity (Rattus norvegicus [40]): 75%
Activity (Rattus norvegicus [42]): 21%
